Measurements published in US12102631B2, “Quinolylnitrones for the treatment and prevention of a cerebral stroke or ischaemia” (ISQUAEMIA BIOTECH, S.L., priority 2018, dated 2024).

Key:
[1] = system: global cerebral ischemia in Wistar rats; experiment: Neurological deficit score after transient global cerebral ischemia (four-vessel occlusion); assay type: in vivo; details: 5 days of reperfusion, vehicle 3.3±0.21
Protocol: (§1) Animal model of global cerebral ischemia, experimental design and administration of nitrones. Transient forebrain ischemia was induced in adult male Wistar rats (10-12 weeks, Charles River) by the standard four-vessel occlusion model (4V0) previously described.^44,56 Briefly, both vertebral arteries were irreversibly occluded by electrocoagulation under anesthesia with a mixture of atropine, ketamine and diazepam (0.25, 62.5, and 5 mg/kg, respectively) delivered by intraperitoneal injection. After 24 h, ischemia was induced by carotid occlusion with atraumatic clips for 15 min and then clips were removed from the carotid arteries to allow reperfusion. Body temperature of 37° C. was maintained. The animals were studied after 5 days of reperfusion (R5 d). We performed a power analysis (http://www.biomath.info/power/ttest.htm) to determine the sample size. We chose the significant level at 0.05, the power set at 0.8 (80%), and a ratio of control/treated group of 2:1, and the sample size obtained was 10 subjects per control group and <6 subjects per treated group. […]
Animals were subjected to 15 min of cerebral ischemia, treated with vehicle or QN 23 at the onset of reperfusion period, and studied after 5 days of reperfusion (R5 d). We evaluated the neurological deficit score (NDS) to assess the effect of QN 23 following global ischemia-reperfusion in R5 d animals. […]

[2] = system: tMCAO in C57BL/6 mice; details: 40 mg/kg; data recently reported by the group; cited from earlier work
[3] = system: global cerebral ischemia in Wistar rats; experiment: Neuronal death by Fluoro-Jade B staining after global cerebral ischemia; assay type: in vivo; details: R5 d
Protocol: as §1, with “group. A total of 26 ischemic animals were used for the study of nitrone 23 efficacy. Here 6 animals were treated with 1.5 mg/kg of nitrone 23, or 40 mg/kg of compound 2, and 14 animals were included in control (vehicle) group, two of which died after 2 days. The treatments were performed with allocated concealment, assigning a random order to each vehicle or treated animal by computer-generated randomization program.” for “group.”
Neuronal death evaluation. Neuronal death was evaluated by Fluoro-Jade-B staining. Brain cryosections (10 μm thick) from ischemic animals that underwent reperfusion for 5 days were used after fixation to detect neuronal death by Fluoro-Jade-B staining,^44 and visualized by fluorescence microscopy. Labeled (dead) neuronal cells (in green) were counted as in TUNEL assay (see below). Data from different animals of each experimental group were independently analyzed by two observers, and treatment information was blindly performed throughout the study. […]

[4] = system: global cerebral ischemia in Wistar rats; experiment: Neuronal apoptosis by TUNEL assay after global cerebral ischemia; assay type: in vivo; details: R5 d
Protocol: as §1, with “group. A total of 26 ischemic animals were used for the study of nitrone 23 efficacy. Here 6 animals were treated with 1.5 mg/kg of nitrone 23, or 40 mg/kg of compound 2, and 14 animals were included in control (vehicle) group, two of which died after 2 days. The treatments were performed with allocated concealment, assigning a random order to each vehicle or treated animal by computer-generated randomization program. Ischemic animals were treated with nitrone 23 diluted in 10% ethanol in saline as vehicle by intraperitoneal injection when the carotid arteries were unclamped for reperfusion.” for “group.”
TUNEL assay. Apoptotic neurons within brain sections were detected using the Terminal deoxynucleotidyl transferase-mediated dUTP Nick-End Labeling (TUNEL) assay (Promega). […]
The hippocampal CA1 subfield and cerebral and lateral cortex fields from a given section were analyzed with fluorescence microscopy (40× objective) to count the number of apoptotic nuclei (green). […]

[5] = system: Carrageenan-induced rat paw edema; experiment: Inhibition of Carrageenan-induced rat paw edema; assay type: in vivo, Fisher 344 rats; details: 0.01 mmol/kg intraperitoneally; 3.5 h after Carrageenan
Protocol: Inhibition of the Carrageenan-induced edema. Edema was induced in the right hind paw of Fisher 344 rats (150-200 g) by the intradermal injection of 0.1 mL 2% Carrageenan in water. Both sexes were used. Females pregnant were excluded. Each group was composed of 6 animals. The experiment was performed twice for validation. The animals, which have been bred in our laboratory, were housed under standard conditions and received a diet of commercial food pellets and water ad libitum during the maintenance, but they were entirely fasted during the experiment period. Nitrone 23 as well as of the standard drug indomethacin in 0.01 mmol/kg body weight, were diluted in water with few drops of Tween 80 and ground in a mortar before use and they were given intraperitoneally simultaneously with the Carrageenan injection. The rats were euthanized 3.5 h after Carrageenan administration. The difference between the weight of the injected and uninjected paws was calculated for each animal. The change in paw weight was compared with that in control animals (treated with water/or Tween-water) and expressed as a percent inhibition of the edema % ICPE values (Table 2). Values % ICPE are the mean from two different experiments (n=6 animals each time) with a standard error of the mean less than 10%.

[6] = 1.5 mg/kg i.p., compared with vehicle

Row | SMILES | neurological deficit score (NDS) ([1]; 40 mg/kg) | size of the ischemic lesion (in words) [2] | effect on neuronal death, CA1 and cortical regions (in words) ([3]; 40 mg/kg) | effect on neuronal apoptosis (in words) ([4]; 40 mg/kg) | neurological deficit score (NDS) ([1]; 1.5 mg/kg i.p. at onset of reperfusion) | decrease of neuronal death, CA1 region [3, 6] [%] | decrease of neuronal death, cortical region [3, 6] [%] | ICPE % [5] [%] | decrease of neuronal apoptosis, CA1 region ([4]; 1.5 mg/kg) [%] | decrease of neuronal apoptosis, cerebral cortex ([4]; 1.5 mg/kg) [%]
1 | CC(C)(C)/[N+]([O-])=C/c1ccc(S(=O)(=O)O)cc1S(=O)(=O)O [Compound 2, sodium (Z)-4-((tert-butyloxidoazanylidene)methyl)benzene-1,3-disulfonate, reference compound] | 2.5±0.28 | did not reduce the size of the ischemic lesion | did not produce a significant effect | induced a decrease of neuronal apoptosis, although it was not significant | – | – | – | – | – | –
2 | COc1ccc2nc(Cl)c(/C=[N+](\[O-])C(C)(C)C)cc2c1 [Compound 23, (Z)—N-tert-Butyl-1-(2-chloro-6-methoxyquinolin-3-yl)methanimine oxide] | – | – | – | – | 2.0±0.44 | 33 | 90 | 48.5 ± 0.8 | 39 | 84
